Data from ChEMBL document CHEMBL3244373, “Stereoselective effects of cis- and trans-cyclopropylbis (dioxopiperazines) related to ICRF-159 on metastases of hamster lung adenocarcinoma” (J Med Chem, 1978).
The source made the active and inactive calls. The calls are words filed in the database; no cut-off is given here.

Tests used:
[1] = Induction of tumor growth in Syrian hamster LG1002 cells in allografted Syrian golden hamster at 15 mg/kg, ip for every 48 hrs for 4 weeks measured after 48 hrs of last treatment on day 28; assay type: organism-based, Mesocricetus auratus; design: dose 15 mg/kg, route intraperitoneal; conditions: in vivo
Mesocricetus auratus [2] = assay: Antimetastatic activity against Syrian hamster LG1002 cells allografted to Syrian golden hamster LSH/LAK assessed as reduction of lung metastases at 15 mg/kg, ip for every 48 hrs for 4 weeks measured after 48 hrs of last treatment relative to carboxymethylcellulose; assay type: functional, organism-based; design: dose 15 mg/kg
[3] = Induction of tumor growth in Syrian hamster LG1002 cells in allografted Syrian golden hamster at 15 mg/kg, ip for every 48 hrs for 4 weeks measured after 48 hrs of last treatment; assay type: organism-based, Mesocricetus auratus; design: dose 15 mg/kg, route intraperitoneal; conditions: in vivo
Mesocricetus auratus [4] = assay: Antimetastatic activity against Syrian hamster LG1002 cells allografted to Syrian golden hamster LSH/LAK assessed as reduction of lung metastases at 15 mg/kg, ip for every 48 hrs for 4 weeks measured after 48 hrs of last treatment relative to saline control; assay type: functional, organism-based; design: dose 15 mg/kg

O=C1CN([C@H]2C[C@@H]2N2CC(=O)NC(=O)C2)CC(=O)N1 (relative stereo)
Activity [1]: > 100 mm2
inhibition (Mesocricetus auratus [2]): inactive
Activity [3]: Toxic
inhibition (Mesocricetus auratus [4]): inactive

O=C1CN([C@@H]2C[C@@H]2N2CC(=O)NC(=O)C2)CC(=O)N1
inhibition (Mesocricetus auratus [2]): Active
Activity [3]: Non-toxic
inhibition (Mesocricetus auratus [4]): Active
